Assay results as given in patent US6166070A, “Kodaistatins A, B, C and D, a process for their production and their use” (Aventis Pharma Deutschland GmbH, priority 1997, dated 2000).
In brackets after ≈: the same amount, converted by molar mass. Like-named read-outs stand apart in the source and are kept apart here.

Tests used:
[1] = biological target: T1, rat liver microsomal glucose-6-phosphate translocase (Rattus norvegicus, UniProt F7EWB7); experiment: inhibition of rat liver microsomal glucose-6-phosphate translocase (colorimetric assay, untreated and Triton X-100 disrupted microsomes); type: biochemical
T1 construct: rat liver microsomal glucose-6-phosphate translocase; from tissue; host or cells: rat liver microsomes (untreated and Triton X-100 disrupted)
T1 sequence (F7EWB7 1-429): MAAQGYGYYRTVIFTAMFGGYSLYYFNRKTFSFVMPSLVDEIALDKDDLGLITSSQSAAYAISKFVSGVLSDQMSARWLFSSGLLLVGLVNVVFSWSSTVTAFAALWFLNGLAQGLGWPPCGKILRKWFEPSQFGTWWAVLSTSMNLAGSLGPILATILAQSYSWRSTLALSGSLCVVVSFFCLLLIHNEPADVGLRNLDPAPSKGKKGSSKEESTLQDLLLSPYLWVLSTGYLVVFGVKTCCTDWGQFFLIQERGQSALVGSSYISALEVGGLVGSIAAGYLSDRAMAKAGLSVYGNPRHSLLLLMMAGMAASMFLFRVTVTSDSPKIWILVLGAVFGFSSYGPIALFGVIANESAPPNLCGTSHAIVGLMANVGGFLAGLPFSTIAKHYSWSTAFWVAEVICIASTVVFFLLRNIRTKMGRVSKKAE
Description: (§1) The fermentation is preferably carried out for 40 to 90 hours when an optimal yield of the compounds of the present invention are obtained. It is particularly preferred to carry out the fermentation for 45-70 hours under submerged conditions for example in shake flasks as well as in laboratory fermenters. If desired, antifoam agents like Desmophen® (Polypropylene oxide, Bayer A G, Leverkusen, Germany) may be used in the fermentation process. The progress of fermentation and formation of Kodaistatins A, B, C and D can be detected by measuring the […] in untreated and Triton X-100® disrupted rat liver microsomes in microliter plates at room temperature using a colorimetric assay as described in Methods in Enzymology, 174,58-67 (1989) with some modification and by HPLC In the resulting culture broth, kodaistatin B, C and D are present as minor compounds, and kodaistatins A as a major compound. Thus, the active crude material can be recovered by extraction of mycelium with water miscible solvents such as methanol, ethanol and acetone, and extraction of the culture filtrate with a water immiscible solvent such as ethyl acetate, dichioromethane, chloroform or butanol at pH 5-8 or by hydrophobic interaction chromatography using polymeric resins such as "Diaion HP-20®" (Mitsubishi Chemical Industries Limited, Japan), "Amberlite XAD®" (Rohm and Haas Industries U.S.A.) activated charcoal or ion exchange chromatography at pH 5-8. The preferred method is adsorption over "Diaion HP-20®" followed by desorption of the compound using eluants such as water, methanol, acetone or acetonitrile or combinations thereof. Concentration and lyophilization of the active eluates gives the crude compound.
Kodaistatins A, B, C and D inhibit potently the activity of rat liver microsomal glucose-6-phosphate translocase.

[2] = solubility; type: physicochemical; settings: solvents in which soluble
[3] = biological target: T2, phosphatase (Rattus norvegicus, UniProt P43428); experiment: inhibition of phosphatase activity in detergent-disrupted microsomes; type: biochemical; settings: for IC50: detergent-disrupted microsomes
T2 construct: from tissue; host or cells: rat liver microsomes, detergent (Triton X-100) disrupted
T2 sequence (P43428 1-357): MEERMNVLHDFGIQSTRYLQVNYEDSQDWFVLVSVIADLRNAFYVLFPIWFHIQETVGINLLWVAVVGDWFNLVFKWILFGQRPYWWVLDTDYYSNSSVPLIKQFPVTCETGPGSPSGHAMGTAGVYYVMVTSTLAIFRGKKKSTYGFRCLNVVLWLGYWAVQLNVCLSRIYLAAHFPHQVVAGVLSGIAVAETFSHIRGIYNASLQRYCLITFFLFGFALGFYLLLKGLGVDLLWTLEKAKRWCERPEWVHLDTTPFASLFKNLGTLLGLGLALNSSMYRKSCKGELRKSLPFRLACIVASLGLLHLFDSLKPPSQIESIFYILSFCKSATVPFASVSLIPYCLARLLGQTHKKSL
Description: as §1

[4] = tested on: phosphate/pyrophosphate translocase; experiment: effect on activity of phosphate/pyrophosphate translocase; type: biochemical, rat
[5] = tested on: glucagon-induced glycogenolysis; experiment: glucose output of isolated rat hepatocytes, glucagon-induced glycogenolysis; type: cell-based; settings: Hepatocyte, read-out: IC50, inhibition of glucagon-induced glycogenolysis
Text: (§2) Kodaistatin A was further evaluated in isolated rat hepatocytes for its effect on glucose output.

[6] = tested on: fructose-induced gluconeogenesis; experiment: glucose output of isolated rat hepatocytes, fructose-induced gluconeogenesis; type: cell-based; settings: Hepatocyte, read-out: IC50, inhibition of fructose-induced gluconeogenesis
Text: as §2

[7] = rat liver microsomes, read-out: approximate IC50, glucose-6-phosphate translocase (converted)

IC50 [1, 7] [nM] | Solubility [2] | mode of inhibition of glucose-6-phosphate translocase [1] | IC50 ([1]; Example V, isolation and purification, read-out: IC50, glucose-6-phosphate translocase, material at stages of purification (converted)) [nM] | IC50 ([1]; rat liver microsomes, molar value in parentheses, read-out: approximate IC50, glucose-6-phosphate translocase (converted)) [nM] | IC50 [3] [nM] | IC50 ([3]; molar value in parentheses) [nM] | effect on activity of phosphate/pyrophosphate translocase [4] | SMILES | specificity for translocase over phosphatase ([3]; translocase vs phosphatase) | IC50 [5] [µg/mL] | IC50 [6] [µg/mL]
~476 | MeOH and DMSO | – | – | – | – | – | – | CCC(C)C=C(C)C=CC(=O)CC1=C(c2cc(O)c(O)cc2C2=C(O)C(=Cc3ccc(O)cc3)OC2=O)C(O)(C(C)=O)C(O)C1=O (single isomer, unassigned) [Kodaistatin B] | – | – | –
~317 | MeOH, CH3 CN and DMSO | reversible and competitive inhibitor | 317 | ~300 | ~317000 | ~300000 | did not affect the activity | CCC(C)/C=C(C)/C=C/C(=O)CC1=C(c2cc(O)c(O)cc2C2=C(O)/C(=C/c3ccc(O)cc3)OC2=O)C(O)(C(C)=O)C(O)C1=O (centres unmarked) [Kodaistatin A] | high degree of specificity for translocase | ~50 (≈ 79.3 µM) | ~25 (≈ 39.6 µM)
~139 | MeOH and DMSO | – | – | – | – | – | – | CCC(C)C=C(C)C=CC(=O)CC1=C(c2cc(O)c(O)cc2C2=C(O)C(=Cc3ccc(O)c(O)c3)OC2=O)C(O)(C(C)=O)C(O)C1=O (centres unmarked) [Kodaistatin C] | – | – | –
~773 | MeOH and DMSO | – | – | – | – | – | – | CCC(C)C=C(C)C=CC(=O)CC1=C(c2cc(O)c(O)cc2C2=C(O)C(=Cc3ccc(O)c(O)c3)OC2=O)C(O)(C(C)=O)C(O)C1=O (centres unmarked) [Kodaistatin D] | – | – | –
